Assay results reported in the supplement of paper PMC11061612.

How the values were obtained:
[1] = test system: ALL-SIL (T-Lymphoblastic Leukemia); test: Bliss excess, mean over the matrix (fraction); higher = more synergy
Outline: (§1)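 Cell lines grown in DMEM/F12 or RPMI with 10% FBS were plated in 1536-well plates and held 24 hours at 37°C, 5% CO2 before 72 hours of exposure to two-drug dose matrices, with DMSO typically at 0.2%. CellTiter-Glo 2.0 luminescence gave viability, which was converted to inhibition. Vehicle wells were set to 0 and blank wells to 1. Combination Emax is the second-highest inhibition in the matrix, and Bliss excess is the observed combination effect minus the expected EA + EB − EA·EB, where EA and EB are the single-agent effects.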

[2] = test system: CADO-ES1 (Ewing's Sarcoma); test: as above
Outline: as §1

EW-1 (Ewing's Sarcoma) = test: as above
Outline: as §1

[3] = test system: HCC1937 (Breast Carcinoma); test: as above
Outline: as §1

[4] = test system: HCC2998 (Colorectal Carcinoma); test: as above
Outline: as §1

[5] = test system: LC-1-sq (Squamous Cell Lung Carcinoma); test: as above
Outline: as §1

[6] = test system: NCI-H1092 (Small Cell Lung Carcinoma); test: as above
Outline: as §1

[7] = test system: NCI-H2122 (Lung Adenocarcinoma); test: as above
Outline: as §1

[8] = test system: NCI-H650 (Lung Adenocarcinoma); test: as above
Outline: as §1

[9] = test system: OACM5-1 (Esophageal Adenocarcinoma); test: as above
Outline: as §1

[10] = test system: SK-LU-1 (Lung Adenocarcinoma); test: as above
Outline: as §1

[11] = test system: A4-Fuk (B-Lymphoblastic Leukemia); test: combination Emax (second highest fraction inhibited in the dose matrix, 72 h); higher = more inhibition; extreme values may be limits of the assay
Outline: as §1

COLO-679 (Melanoma) = test: as above
Outline: as §1

[12] = test system: HAL-01 (B-Lymphoblastic Leukemia); test: as above
Outline: as §1

[13] = test system: MDA-MB-453 (Breast Carcinoma); test: as above
Outline: as §1

[14] = test system: MOG-G-UVW (Low Grade Glioma); test: as above
Outline: as §1

SK-N-AS (Neuroblastoma) = test: as above
Outline: as §1

[15] = test system: SW872 (Other Solid Carcinomas); test: as above
Outline: as §1

[16] = test system: SW982 (Other Solid Carcinomas); test: as above
Outline: as §1

[17] = test system: COLO-668 (Small Cell Lung Carcinoma); test: as above
Outline: as §1
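Throughout, for Bliss excess, mean over the matrix: after 72 h of two-drug dosing.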

| Structure (SMILES) | Bliss excess [1] | Bliss excess [2] | Bliss excess (EW-1 (Ewing's Sarcoma)) | Bliss excess [3] | Bliss excess [4] | Bliss excess [5] | Bliss excess [6] | Bliss excess [7] | Bliss excess [8] | Bliss excess [9] | Bliss excess [10] | combination Emax [11] | combination Emax (COLO-679 (Melanoma)) | combination Emax [12] | combination Emax [13] | combination Emax [14] | combination Emax (SK-N-AS (Neuroblastoma)) | combination Emax [15] | combination Emax [16] | combination Emax [17] |
| --- | --- | --- | --- | --- | --- | --- | --- | --- | --- | --- | --- | --- | --- | --- | --- | --- | --- | --- | --- | --- |
| CN(CCO)CC[C@H](CSc1ccccc1)Nc1ccc(S(=O)(=O)NC(=O)c2ccc(N3CCC([C@@H](O)c4ccccc4-c4ccc(Cl)cc4)CC3)cc2)cc1S(=O)(=O)C(F)(F)F [AZD4320] + C1CN(CCC1(C(=O)N[C@@H](CCO)C2=CC=C(C=C2)Cl)N)C3=NC=NC4=C3C=CN4 [Capivasertib] (first compound max 1 µM, 7x7, partner max 3 µM) | -0.0464 | -0.0387 | -0.0009 | -0.0881 | -0.0128 | -0.02 | -0.0476 | -0.0234 | -0.0252 | -0.0272 | -0.0558 | 0.683 | 0.0975 | 0.761 | 0.596 | 0.355 | 0.172 | 0.166 | 0.278 |  |
| CN(CCO)CC[C@H](CSc1ccccc1)Nc1ccc(S(=O)(=O)NC(=O)c2ccc(N3CCC([C@@H](O)c4ccccc4-c4ccc(Cl)cc4)CC3)cc2)cc1S(=O)(=O)C(F)(F)F [AZD4320] + CC(=O)O[C@H]1C(=O)[C@@]2(C)[C@H]([C@H](OC(=O)c3ccccc3)[C@]3(O)C[C@H](OC(=O)[C@H](O)[C@@H](NC(=O)c4ccccc4)c4ccccc4)C(C)=C1C3(C)C)[C@]1(OC(C)=O)CO[C@@H]1C[C@@H]2O [Paclitaxel] (first compound max 1 µM, 7x7, partner max 3 µM) |  |  |  |  |  |  |  |  |  |  | 0.116 | 0.97 | 0.651 | 0.999 | 0.901 | 0.993 | 0.884 | 0.95 | 1 | 0.998 |
| CN(CCO)CC[C@H](CSc1ccccc1)Nc1ccc(S(=O)(=O)NC(=O)c2ccc(N3CCC([C@@H](O)c4ccccc4-c4ccc(Cl)cc4)CC3)cc2)cc1S(=O)(=O)C(F)(F)F [AZD4320] + C[C@@H](Nc1cc(F)cc(F)c1)c1cc(C(=O)N(C)C)cc2c(=O)cc(N3CCOCC3)oc12 [AZD8186] (first compound max 1 µM, 7x7, partner max 3 µM) | 0.0208 | -0.0003 | 0.0604 | -0.008 | -0.0212 | 0.022 | 0.0389 | 0 | 0.0081 | 0.0343 |  | 0.373 | 0.256 | 0.935 | 0.48 | 0.727 | 0.406 | 0.293 | 0.928 | 0.977 |
| CN(CCO)CC[C@H](CSc1ccccc1)Nc1ccc(S(=O)(=O)NC(=O)c2ccc(N3CCC([C@@H](O)c4ccccc4-c4ccc(Cl)cc4)CC3)cc2)cc1S(=O)(=O)C(F)(F)F [AZD4320] + Cn1cnc2c(F)c(Nc3ccc(Br)cc3Cl)c(C(=O)NOCCO)cc21 [Selumetinib] (first compound max 1 µM, 7x7, partner max 3 µM) | -0.0006 | -0.0085 | 0.0387 | -0.0001 | 0.0449 | 0.0514 | -0.0193 | 0.0399 | 0.119 | 0.0624 |  | 0.456 | 0.834 | 0.916 | 0.331 | 0.593 | 0.776 | 0.21 | 0.844 | 0.989 |
| CN(CCO)CC[C@H](CSc1ccccc1)Nc1ccc(S(=O)(=O)NC(=O)c2ccc(N3CCC([C@@H](O)c4ccccc4-c4ccc(Cl)cc4)CC3)cc2)cc1S(=O)(=O)C(F)(F)F [AZD4320] + Nc1ccn([C@@H]2O[C@H](CO)[C@@H](O)C2(F)F)c(=O)n1 [Gemcitabine] (first compound max 1 µM, 7x7, partner max 0.3 µM) |  |  |  |  |  |  |  |  |  |  | -0.036 | 0.914 | 0.851 | 1 | 0.731 | 0.821 | 0.672 | 0.929 | 1 | 0.966 |
| Cc1cc2ncnn2cc1Nc1ncc2c(n1)n(C1CCOCC1)c(=O)n2C [AZD7648] + C=CCn1c(=O)c2cnc(Nc3ccc(N4CCN(C)CC4)cc3)nc2n1-c1cccc(C(C)(C)O)n1 [AZD1775] (first compound max 10 µM, partner max 1 µM) | 0.0133 | 0.0512 | 0.0272 | -0.0069 | 0.0368 | 0.0567 | -0.0873 | -0.0122 | 0.0029 | -0.0206 |  | 0.861 | 0.46 | 0.914 | 0.347 | 0.779 | 0.949 | 0.384 | 0.825 | 0.568 |
| Cc1cc2ncnn2cc1Nc1ncc2c(n1)n(C1CCOCC1)c(=O)n2C [AZD7648] + CCN(CCO)CCCOc1ccc2c(Nc3cc(CC(=O)Nc4cccc(F)c4)[nH]n3)ncnc2c1 [AZD2811] (first compound max 10 µM, 7x7, partner max 1 µM) | -0.0416 | 0.0236 | 0.053 | 0.0064 | -0.0065 | 0.0569 | 0.0041 | 0.0547 | -0.0147 | -0.0151 |  | 0.699 | 0.203 | 0.342 | 0.362 | 0.686 | 0.46 | 0.271 | 0.621 | 0.158 |
| Cc1cc2ncnn2cc1Nc1ncc2c(n1)n(C1CCOCC1)c(=O)n2C [AZD7648] + CN(C)CCCOc1ccc(-c2ccc3ncc4c(c3c2)n(C2CCOCC2)c(=O)n4C)cn1 [AZD0156] (first compound max 10 µM, 7x7, partner max 1 µM) | 0.0467 | 0.0465 | 0.0734 | -0.0129 | 0.0329 | 0.03 | -0.0312 | 0.0426 | 0.0061 | 0.0206 |  | 0.575 | 0.2 | 0.398 | 0.325 | 0.379 | 0.245 | 0.264 | 0.36 | 0.133 |
| Cc1cc2ncnn2cc1Nc1ncc2c(n1)n(C1CCOCC1)c(=O)n2C [AZD7648] + COc1cc([C@@H]2c3cc4c(cc3[C@@H](O[C@@H]3O[C@@H]5CO[C@@H](C)O[C@H]5[C@H](O)[C@H]3O)[C@H]3COC(=O)[C@H]23)OCO4)cc(OC)c1O [Etoposide] (first compound max 10 µM, 7x7, partner max 10 µM) |  |  |  |  |  |  |  |  |  |  | 0.0201 | 0.937 | 0.588 | 1 | 0.497 | 0.9 | 0.472 | 0.817 | 0.861 | 0.862 |
| Cc1cc2ncnn2cc1Nc1ncc2c(n1)n(C1CCOCC1)c(=O)n2C [AZD7648] + C[C@@H]1COCCN1C2=NC(=NC(=C2)C3(CC3)[S@](=N)(=O)C)C4=C5C=CNC5=NC=C4 [AZD6738] (first compound max 10 µM, 7x7, partner max 10 µM) | 0.0462 | 0.0364 | 0.024 | -0.0345 | 0.0336 | 0.0311 | 0.0073 | 0.0176 | 0.0048 | 0.0198 |  | 0.765 | 0.687 | 0.984 | 0.832 | 0.795 | 0.938 | 0.496 | 0.73 | 0.579 |
| COc1cc2c(cc1OCCCCCOc1cc3c(cc1OC)C(=O)N1C=C(C)C[C@H]1C=N3)N=C[C@@H]1CC(C)=CN1C2=O [SG3199] + O=C(c1cc(Cc2n[nH]c(=O)c3ccccc23)ccc1F)N1CCN(C(=O)C2CC2)CC1 [Olaparib] (first compound max 0.001 µM, 7x7, partner max 10 µM) | -0.0316 | 0.0008 | 0.0403 | -0.0623 | -0.0099 | -0.0029 | -0.0165 | 0.0073 | -0.0206 | -0.0313 |  | 0.157 | 0.108 | 0.215 | 0.128 | 0.307 | 0.0679 | 0.0788 | 0.43 | 0.163 |
| N#Cc1cnc(Nc2cc(NC[C@H]3CNCCO3)c(C(F)(F)F)cn2)cn1 [SRA737] + C=CCn1c(=O)c2cnc(Nc3ccc(N4CCN(C)CC4)cc3)nc2n1-c1cccc(C(C)(C)O)n1 [AZD1775] (first compound max 10 µM, partner max 1 µM) |  |  |  |  |  |  |  |  |  |  | 0.0096 | 0.959 | 0.806 | 1 | 0.667 | 0.881 | 0.811 | 0.683 | 0.759 | 0.748 |
| N#Cc1cnc(Nc2cc(NC[C@H]3CNCCO3)c(C(F)(F)F)cn2)cn1 [SRA737] + CCc1c2c(nc3ccc(O)cc13)-c1cc3c(c(=O)n1C2)COC(=O)[C@]3(O)CC [SN-38] (first compound max 10 µM, 7x7, partner max 0.3 µM) |  |  |  |  |  |  |  |  |  |  | -0.0943 | 0.974 | 0.723 | 1 | 0.719 | 0.925 | 0.763 | 0.947 | 0.829 | 0.953 |
| N#Cc1cnc(Nc2cc(NC[C@H]3CNCCO3)c(C(F)(F)F)cn2)cn1 [SRA737] + Nc1ccn([C@@H]2O[C@H](CO)[C@@H](O)C2(F)F)c(=O)n1 [Gemcitabine] (first compound max 10 µM, 7x7, partner max 0.3 µM) |  |  |  |  |  |  |  |  |  |  | -0.101 | 0.976 | 0.828 | 1 | 0.542 | 0.986 | 0.712 | 0.905 | 0.905 | 0.84 |
| N#Cc1cnc(Nc2cc(NC[C@H]3CNCCO3)c(C(F)(F)F)cn2)cn1 [SRA737] + O=c1[nH]cc(F)c(=O)[nH]1 [5-Fluorouracil] (first compound max 10 µM, 7x7, partner max 20 µM) |  |  |  |  |  |  |  |  |  |  | -0.0137 | 0.905 | 0.7 | 1 | 0.534 | 0.558 | 0.565 |  | 0.679 | 0.483 |
